In patent publication US20090068290A1, “BIFEPRUNOX DOSES FOR TREATING SCHIZOPHRENIA” (priority 2006, published 2009):

Key:
[1] = tested on: adult subjects with schizophrenia; test: Calgary Depression Scale for Schizophrenia (CDSS), Clinical Study Two; assay type: in vivo, human; settings: for Change from Baseline in CDSS Total Score, Median / Change from Baseline in CDSS Total Score, Mean (SD): 40 mg; for Change from Baseline in CDSS Total Score, Median / Change from Baseline in CDSS Total Score, Mean (SD) / mean change (SD) from Baseline to Endpoint in CDSS score: LOCF; for CDSS score, treatment effect (bifeprunox, placebo): Endpoint LOCF; for mean change (SD) from Baseline to Endpoint in CDSS score: ITT
Procedure: Rating scale assessments were performed weekly, except for week 5, to measure the change from baseline to endpoint of the PANSS total score. Other assessments included: PANSS positive symptom subscale score, PANSS negative symptom subscale score, PANSS general pschopathology subscale score, BPRS total score, BPRS psychosis score, the CGI-S score, the CGI-I score, responder rates based on the PANSS total score, and the Calgary Depression Scale for Schizophrenia (CDSS). […]
(§1) Subjects who completed this study had the option to continue in the long-term. […] Risperidone-treated subjects were titrated from 2 mg to 6 mg daily over a three-day period and were subsequently maintained at 6 mg/day for the remainder of the treatment period. […] Blood samples were also obtained at Screening/Baseline, Week 3, and Week 6 for clinical laboratory assessments.

[2] = tested on: adult subjects with schizophrenia; test: Adverse events (TEAE, SAE, special interest, EPS-related TEAE), Clinical Study Two; assay type: in vivo, human
Procedure: as §1

[3] = Pooled metabolic analysis, 6-week studies: body weight; settings: for ≧7% weight decrease, (%) / ≧7% weight increase, (%) / Weight, Mean (SD) change from baseline: 6-week placebo controlled trials, BX total doses, RISP 6 mg, OLZ 15 mg, HAL 10 mg; for Weight, Mean (SD) change from baseline: endpoint
Source text: OBJECTIVE: To examine the metabolic effects of bifeprunox in patients with acute and stable schizophrenia.
METHODS: Metabolic data was compiled from one 6-month and four 6-week studies (i.e., a treatment period) of bifeprunox in patients with stable and acute schizophrenia, respectively. In the 6-month study, patients received bifeprunox (n=331) or placebo (PBO) (n=166). […] Metabolic evaluations included body weight, body mass index (BMI), plasma glucose and lipid profiles. Fasting glucose and lipid values were assessed in one 6-week study and in the 6-month study. Triglyceride:HDL ratio (TG:HDL) was calculated as a marker of insulin resistance. No statistical analyses were performed; only descriptive statistics are presented.

[4] = Clinical laboratory assessments (prolactin), Clinical Study Three; settings: bifeprunox 20, 30 mg; 6 weeks
Source text: To assess the safety and tolerability of bifeprunox using physical examination, weight, waist circumference, vital signs (pulse rate and systolic/diastolic blood pressure [BP], and oral temperature), 12-lead electrocardiogram (ECG), clinical laboratory assessments (hematology, biochemistry including fasting insulin level, fasting glucose, fasting lipid profile, urinalysis, special laboratory assessments for prolactin, IGF-1, IGFBP-3, and thyroid function), need for anticholinergic treatment during double-blind treatment period, concomitant medication use, adverse event (AE) monitoring, and assessments of abnormal movement including the Simpson-Angus Scale (SAS), Barnes Akathisia Scale (BAS), and Abnormal Involuntary Movement Scale (AIMS).

O=c1[nH]c2cccc(N3CCN(Cc4cccc(-c5ccccc5)c4)CC3)c2o1 [Bifeprunox, 7-[4-([1,1′-biphenyl]-3-ylmethyl)-1-piperazinyl]-2(3H)-benzoxazolone]
Change from Baseline in CDSS Total Score, Median ([1]; Week 1): 0.0 | Change from Baseline in CDSS Total Score, Mean (SD) ([1]; Week 2): −0.32 (2.95) | Change from Baseline in CDSS Total Score, Median ([1]; Week 2): 0.0 | Change from Baseline in CDSS Total Score, Mean (SD) ([1]; Week 3): −0.44 (3.09) | Change from Baseline in CDSS Total Score, Median ([1]; Week 3): 0.0 | Change from Baseline in CDSS Total Score, Mean (SD) ([1]; Week 4): −0.19 (3.32) | Change from Baseline in CDSS Total Score, Median ([1]; Week 4): 0.0 | Change from Baseline in CDSS Total Score, Mean (SD) ([1]; Week 6/Endpoint): 0.01 (3.66) | Change from Baseline in CDSS Total Score, Median ([1]; Week 6/Endpoint): 0.0 | CDSS score, treatment effect (bifeprunox, placebo) ([1]; bifeprunox 30 mg): −0.38 | mean change (SD) from Baseline to Endpoint in CDSS score ([1]; bifeprunox 30 mg): −0.66 (3.64) | CDSS score, treatment effect (bifeprunox, placebo) ([1]; bifeprunox 40 mg): 0.29 | mean change (SD) from Baseline to Endpoint in CDSS score ([1]; bifeprunox 40 mg): 0.01 (3.66) | AKATHISIA, % ([2]; BX 30 mg): (3%) | BALANCE DISORDER, % ([2]; BX 30 mg): (<1%) | COGWHEEL RIGIDITY, % ([2]; BX 30 mg): (<1%) | DISTURBANCE IN ATTENTION, % ([2]; BX 30 mg): (<1%) | DIZZINESS, % ([2]; BX 30 mg): (8%) | DYSARTHRIA, % ([2]; BX 30 mg): (<1%) | DYSGEUSIA, % ([2]; BX 30 mg): (<1%) | DYSKINESIA, % ([2]; BX 30 mg): (1%) | Dystonia, % ([2]; BX 30 mg): (2%) | EXTRAPYRAMIDAL DISORDER, % ([2]; BX 30 mg): (5%) | HEADACHE NOS, % ([2]; BX 30 mg): (12%) | MIGRAINE, % ([2]; BX 30 mg): 1 (<1%) | NERVOUS SYSTEM DISORDERS, % ([2]; BX 30 mg): (36%) | PARAESTHESIA, % ([2]; BX 30 mg): 1 (<1%) | PSYCHOMOTOR HYPERACTIVITY, % ([2]; BX 30 mg): 1 (<1%) | SEDATION, % ([2]; BX 30 mg): 5% | Syncope, % ([2]; BX 30 mg): 1 (<1%) | TARDIVE DYSKINESIA, % ([2]; BX 30 mg): < 1% | TREMOR, % ([2]; BX 30 mg): 6% | AKATHISIA, % ([2]; BX 40 mg): (7%) | Choreoathetosis, % ([2]; BX 40 mg): (<1%) | DIZZINESS, % ([2]; BX 40 mg): (14%) | DYSKINESIA, % ([2]; BX 40 mg): (3%) | Dystonia, % ([2]; BX 40 mg): (2%) | EXTRAPYRAMIDAL DISORDER, % ([2]; BX 40 mg): (5%) | HEADACHE NOS, % ([2]; BX 40 mg): (17%) | NERVOUS SYSTEM DISORDERS, % ([2]; BX 40 mg): (37%) | SEDATION, % ([2]; BX 40 mg): 3% | SOMNOLENCE, % ([2]; BX 40 mg): 1 (<1%) | TARDIVE DYSKINESIA, % ([2]; BX 40 mg): 1 (<1%) | TREMOR, % ([2]; BX 40 mg): 7% | safety and tolerability ([2]; bifeprunox 30 mg and 40 mg, 6 weeks): safe and well tolerated | incidence of severe TEAE of schizophrenia ([2]; bifeprunox groups (30, 40 mg)): 3% | ≧7% weight decrease, (%) ([3]; baseline BMI 18.5-25 kg/m^2): 5.4% | ≧7% weight increase, (%) ([3]; baseline BMI 18.5-25 kg/m^2): 2.4% | ≧7% weight decrease, (%) ([3]; baseline BMI <18.5 kg/m^2): 3.7% | ≧7% weight increase, (%) ([3]; baseline BMI <18.5 kg/m^2): 3.7% | ≧7% weight decrease, (%) ([3]; baseline BMI >25-30 kg/m^2): 8.8% | ≧7% weight increase, (%) ([3]; baseline BMI >25-30 kg/m^2): 1.8% | ≧7% weight decrease, (%) ([3]; baseline BMI >30 kg/m^2): 5.8% | ≧7% weight increase, (%) ([3]; baseline BMI >30 kg/m^2): 1.4% | ≧7% weight decrease, (%) ([3]; baseline BMI All): 6.2% | ≧7% weight increase, (%) ([3]; baseline BMI All): 2.1% | Weight, Mean (SD) change from baseline ([3]; baseline BMI 18.5-25 kg/m^2): −0.4 (2.6) kg | Weight, Mean (SD) change from baseline ([3]; baseline BMI <18.5 kg/m^2): 0.0 (1.7) kg | Weight, Mean (SD) change from baseline ([3]; baseline BMI >25-30 kg/m^2): −0.9 (3.2) kg | Weight, Mean (SD) change from baseline ([3]; baseline BMI >30 kg/m^2): −1.4 (3.9) kg | Weight, Mean (SD) change from baseline ([3]; baseline BMI All): −0. (3.2) kg | mean weight decrease ([3]; 6-week studies, pooled): 0.8 kg | mean weight change ([3]; 6-week studies, pooled (overall summary)): -0.8 kg | mean change in weight at endpoint ([3]; 6-week studies, patients with nausea or vomiting): -1.7 kg | mean change in weight at endpoint ([3]; 6-week studies, patients without nausea or vomiting): -0.4 kg | prolactin [4]: a decrease in prolactin
